In patent publication US10711041B2, “Lyophilisate containing a cyclic peptide of formula X1-[sequence]-X2” (priority 2013, dated 2020):
Bridges are numbered along the chain shown (N, C = ends). Where no end group is shown, it is not given here.

Test system: donor lung of a pig
Experiment: Ex vivo lung perfusion (EVLP) of pig donor lungs simulating lung transplantation
Method: Brain-dead pigs were brought into back position and a vertical sternotomy was carried out. The pericardium and both pleural cavities were opened. The lower and upper cavial venes were embraced. An inflow catheter was inserted into the lung artery by means of a purse-string suture in the right ventricular discharging tract. An inflow occlusion was obtained by connecting the lower and upper cavial venes, discharge occlusion by stapling off the aorta. The lungs then were protected by a prophylactic rinsing with cold, isotonic conservation solution (50 ml per kg body weight of the pig, comprising potassium ions, sodium ions, magnesium ions, calcium ions, chloride ions, dextran, glucose, buffer ions) through the inflow catheter. Incision of the left heart tube yields discharge. The lungs were aerated during that time period with 50% oxygen and ice sludge was given into both pleural cavities and into the mediastinum.
The explanation technique in sum was the removal with heart and esophagus according to the following steps: • a) Dissection of the soft tissue bridges to the thoracic cavity at both sides of the trachea. • b) Transsection of both pulmonal ligaments (very deep, difficult exposure), then of VCI, of the low thoracic aorta ascendens, or the esophagus, respectively. • c) Blunt-separation of residual mediastinal adhesions. • d) Entire distension of the donor lung before the tracheal closure with a clip.
After explantation the lungs were winded into gauze, put into an ice bag, filled with low-potassium-dextran-extracellular solution and stored at 4° C. for 18 to 24 hours.
For the ex-vivo lung conditioning the EVLP-technique was used ([…]). […] During the EVLP the lung function may be assessed regularly regarding key indicators. […]
The processing of the donor lung from the pig was started with sewing on a funnel-shaped tube from Silastic with a pressure-monitored catheter, implemented into the left atrial cuff (LA), for openly splinting the LA and for maintaining a closed perfusion circulation. […]

[1] = inhalation 1 mg/kg, vs Water for Injection

Row | Molecule | arterio-venous pO2 difference ΔpO2 [1] | dynamic lung conformity (compliance) [1] | effects regarding the lung
1 | C[C@@H]1NC(=O)CNC(=O)[C@H](CCC(=O)O)NC(=O)[C@@H]2CCCN2C(=O)[C@H]([C@@H](C)O)NC(=O)[C@H](CCC(=O)O)NC(=O)[C@H](CCCNC(=N)N)NC(=O)[C@H](CCC(N)=O)NC(=O)CNC(=O)[C@@H](N)CSSC[C@@H](C(=O)O)NC(=O)[C@H](Cc2ccc(O)cc2)NC(=O)[C@H](Cc2c[nH]c3ccccc23)NC(=O)[C@@H]2CCCN2C(=O)[C@H](CCCCN)NC(=O)[C@H](C)NC(=O)[C@H](CCC(=O)O)NC1=O [SEQ ID NO: 1] | improved | improved | 
2 | Cyclo(CGQREAPAGAAAKPWYC) (disulfide 1-17) [SEQ ID NO: 7, reference compound] |  |  | no improving effects
